The assay has as its target T1, P2X4 receptor (Homo sapiens, UniProt Q99571).
T1 construct: expressed in transfected cells; host or cells: 1321N1 astrocytoma cells, retroviral vector pQCXIN, G418 selection, monoclones
T1 sequence (Q99571 1-388): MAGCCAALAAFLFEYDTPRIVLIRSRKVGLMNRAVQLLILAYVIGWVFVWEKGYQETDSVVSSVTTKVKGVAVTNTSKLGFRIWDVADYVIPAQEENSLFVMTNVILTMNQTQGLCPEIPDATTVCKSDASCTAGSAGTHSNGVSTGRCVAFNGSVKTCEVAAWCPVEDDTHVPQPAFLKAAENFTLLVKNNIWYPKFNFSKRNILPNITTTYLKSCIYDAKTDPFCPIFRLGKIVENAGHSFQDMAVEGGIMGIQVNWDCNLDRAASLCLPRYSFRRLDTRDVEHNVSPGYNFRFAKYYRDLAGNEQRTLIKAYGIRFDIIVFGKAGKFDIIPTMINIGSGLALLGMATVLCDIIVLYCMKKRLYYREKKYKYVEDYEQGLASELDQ
Briefly: Measurement of Ca2+ influx in transfected 1321N1 astrocytoma cells (P2X4 inhibitory potency). The assay is classed as cell-based. Particulars: agonist-mediated Ca2+ influx, FLUO-4, 1321N1 astrocytoma cells; antagonists added 30 min before agonist. The text has this:
The rat, mouse, and human P2X4 DNA, respectively, were cloned into the retroviral vector pQCXIN. 1321N1 Astrocytoma cells were transfected with the DNA using a retroviral system as described previously. In brief, GP+envAM12 packaging cells were first transiently co-transfected with a retroviral vector to generate the retrovirus and with a vesicular stomatitis virus G protein (VSV-G) to pseudotype the virus and to increase their infection efficiency. The viruses containing the rat, mouse or human P2X4 receptor sequence were then used to create a stable astrocytoma cell line. P2X4 receptor-expressing cells were selected with G418 ([…]).
The selection of monoclones for rat and human P2X4 receptors was performed using the limited dilution method by plating the cells at very low cell densities (1 cell clone per well in 96-well plates). Cells were counted, and then several dilutions were made to obtain a concentration of […]. We subsequently added 100 µL of the diluted cell suspension into each well expecting to obtain on average 1 cell per well. After a few days the wells that contained single clones were labeled and transferred into 24 well plates. More than 20 clones were selected for each cell line and characterized in calcium influx assay.
Measurement of Ca^2+ influx in transfected 1321N1 astrocytoma cells
P2X receptor function was determined on the basis of agonist-mediated increases in cytosolic Ca^2+ concentration. The fluorescent Ca^2+chelating dye FLUO-4 was used as an indicator of the relative levels of intracellular Ca^2+ in a 96-well format using a fluorescence imaging plate reader (Novostar, BMG, Germany). Cells were grown to confluence in 96-well black-walled tissue culture plates and loaded with FLUO-4 AM ([…]) in Hank's balanced salt solution (HBSS, containing 10 mM HEPES, pH 7.3, and 1% Pluronic® F127) for 1 h at 23° C. After incubation, the loaded cells were washed with the same buffer to remove extracellular FLUO-4 AM. Compound solutions were prepared in HBSS (containing 20 mM HEPES, pH 7.3) or DMSO depending on their solubility. […] Fluorescence intensity was measured at 520 nm for 30 s at 0.4 s intervals. Buffer or test compounds were injected sequentially into separate wells using the automatic pipetting device. At least three independent experiments were performed in triplicate or duplicate. Antagonists were added 30 min before the addition of agonists. The assays were performed in a final volume of 200 μL. Compounds were tested at 7-8 different concentrations spanning three orders of magnitude of concentrations. Statistical significances were calculated using the unpaired two-tailed t-test.

The term IC50 denotes the concentration that inhibits the measured activity by half. In turn, `Cc1ccc(-c2ccc(C)c(NCC(=O)N3CCc4c3cccc4N3C4CCC3CC(O)C4)c2)o1` (centres unmarked) [Example 36, 1-(4-(3-hydroxy-8-azabicyclo[3.2.1]octan-8-yl)indolin-1-yl)-2-((2-methyl-5-(5-methylfuran-2-yl)phenyl)amino)ethan-1-one] came in with an IC50 of 20 to 39 nM.

In turn, `Cc1nsc(-c2ccc(C)c(NCC(=O)c3c[nH]c4c(C(C)O)cccc34)c2)n1` (centres unmarked) [Example 112, 1-(7-(1-hydroxyethyl)-1H-indol-3-yl)-2-((2-methyl-5-(3-methyl-1,2,4-thiadiazol-5-yl)phenyl)amino)ethan-1-one] came in with an IC50 of 0.1 to 19 nM.

In turn, `C#Cc1nsc(-c2ccc(C)c(NCC(=O)N3CCc4c(OC)cccc43)c2)n1` [Example 15, 2-((5-(3-ethynyl-1,2,4-thiadiazol-5-yl)-2-methylphenyl)amino)-1-(4-methoxyindolin-1-yl)ethan-1-one] came in with an IC50 of 0.1 to 19 nM.

For `CC(=O)N(c1cccc2c1CCN2C(=O)CNc1cc(-c2nc(C)ns2)ccc1C)S(C)(=O)=O` [Example 77, N-(1-((2-methyl-5-(3-methyl-1,2,4-thiadiazol-5-yl)phenyl)-glycyl)indolin-4-yl)-N-(methylsulfonyl)acetamide], the IC50 fell in the range of 20 to 39 nM.

As to `COc1cc2[nH]cc(C(=O)CNc3cc(-c4nc(C)ns4)cc(F)c3OC)c2cc1F` [Example 101, 2-((3-fluoro-2-methoxy-5-(3-methyl-1,2,4-thiadiazol-5-yl)phenyl)amino)-1-(5-fluoro-6-methoxy-1H-indol-3-yl)ethan-1-one], the IC50 fell in the range of 20 to 39 nM.

In turn, `Cc1nsc(-c2ccc(C)c(NCC(=O)N3CCc4c3cccc4N3CC(=O)NC3=O)c2)n1` [Example 54, 1-(1-((2-methyl-5-(3-methyl-1,2,4-thiadiazol-5-yl)phenyl)glycyl)indolin-4-yl) imidazolidine-2,4-dione] displayed an IC50 of 70 to 99 nM.

In turn, `Cc1nsc(-c2ccc(C)c(NCC(=O)N3CCc4c(O)cccc43)c2)n1` [Example 85, 1-(4-hydroxyindolin-1-yl)-2-((2-methyl-5-(3-methyl-1,2,4-thiadiazol-5-yl)phenyl)-amino)ethan-1-one] came in with an IC50 of 0.1 to 19 nM.

In turn, `COc1ccc(-c2nc(C)ns2)cc1NCC(=O)N1CCc2c(OC)cccc21` [Example 4, 2-((2-methoxy-5-(3-methyl-1,2,4-thiadiazol-5-yl)phenyl)-amino)-1-(4-methoxyindolin-1-yl)ethan-1-one] yielded an IC50 of 20 to 39 nM.

Regarding `COc1ccc2c(C(=O)CNc3cc(-c4nc(C)ns4)ccc3C)c[nH]c2n1` [Example 95, 1-(6-methoxy-1H-pyrrolo[2,3-b]pyridin-3-yl)-2-((2-methyl-5-(3-methyl-1,2,4-thiadiazol-5-yl)phenyl)amino)ethan-1-one], the IC50 fell in the range of 0.1 to 19 nM.

For `Cc1nsc(-c2ccc(C)c(NCC(=O)N3CCc4c3cncc4C(C)(C)O)c2)n1` [Example 91, 1-(4-(2-Hydroxypropan-2-yl)-2,3-dihydro-1H-pyrrolo[2,3-c]pyridin-1-yl)-2-((2-methyl-5-(3-methyl-1,2,4-thiadiazol-5-yl)phenyl)amino)ethan-1-one], the IC50 is > 100 nM.

Compound `CCc1noc(-c2ccc(OC)c(NCC(=O)c3c[nH]c4cc(OC)c(F)cc34)c2)n1` [Example 97, 2-((5-(3-ethyl-1,2,4-oxadiazol-5-yl)-2-methoxyphenyl)amino)-1-(5-fluoro-6-methoxy-1H-indol-3-yl) ethan-1-one] yielded a 50% inhibitory concentration (IC50) of 0.1 to 19 nM.

`Cc1noc(-c2ccc(C)c(NCC(=O)N3CCc4c(OCC(C)(C)O)cccc43)c2)n1` [Example 49, 1-(4-(2-hydroxy-2-methylpropoxy)indolin-1-yl)-2-((2-methyl-5-(3-methyl-1,2,4-oxadiazol-5-yl)phenyl)amino)ethan-1-one]: the IC50 was 40 to 69 nM.

On to `Cc1nsc(-c2ccc(C)c(NCC(=O)N3CCc4c3cccc4C(C)(C)O)c2)n1` [Example 22, 1-(4-(2-hydroxypropan-2-yl)indolin-1-yl)-2-((2-methyl-5-(3-methyl-1,2,4-thiadiazol-5-yl)phenyl)amino)ethan-1-one], for which the IC50 lay within 0.1 to 19 nM.

Take `CCc1nsc(-c2ccc(C)c(NCC(=O)N3CCc4c(NS(C)(=O)=O)cccc43)c2)n1` [Example 20, N-(1-((5-(3-ethyl-1,2,4-thiadiazol-5-yl)-2-methylphenyl)glycyl)indolin-4-yl) methanesulfonamide]: the IC50 lay in the range of 0.1 to 19 nM.

`CCc1noc(-c2ccc(OC)c(NCC(=O)N3CCc4ccc(C(F)(F)F)cc43)c2)n1` [Example 7, 2-(5-(3-ethyl-1,2,4-oxadiazol-5-yl)-2-methoxyphenylamino)-1-(6-(trifluoromethyl)indolin-1-yl)ethanone]: the IC50 is > 100 nM.

Turning to `CC(=O)c1cccc2c1CCN2C(=O)CNc1cc(-c2nc(C)ns2)ccc1C` [Example 37, 1-(4-acetylindolin-1-yl)-2-((2-methyl-5-(3-methyl-1,2,4-thiadiazol-5-yl)phenyl)amino)ethan-1-one], the IC50 fell in the range of 20 to 39 nM.

Compound `Cc1nsc(-c2ccc(C)c(NCC(=O)N3CCc4c3cccc4[C@](C)(O)CO)c2)n1` [Example 65, 1-(4-(1,2-dihydroxypropan-2-yl)indolin-1-yl)-2-((2-methyl-5-(3-methyl-1,2,4-thiadiazol-5-yl)phenyl)amino)ethan-1-one] had an IC50 of 0.1 to 19 nM.

For `CCc1nsc(-c2ccc(C)c(NCC(=O)N3CCc4c(O)cccc43)c2)n1` [Example 84, 2-((5-(3-ethyl-1,2,4-thiadiazol-5-yl)-2-methylphenyl)amino)-1-(4-hydroxyindolin-1-yl) ethan-1-one], the IC50 was in the range of 0.1 to 19 nM.

“2-((2-methyl-5-(3-methyl- 1,2,4-oxadiazol-5-yl) phenyl)amino)-1-(1H- pyrrolo[2,3-b]pyridin-3- yl)ethan-1-one [Example 107]” displayed an IC50 of 70 to 99 nM.

As to `Cc1nsc(-c2ccc(C)c(NCC(=O)N3CCc4c3cccc4N3C(=O)CCS3(=O)=O)c2)n1` [Example 13, 2-(1-((2-methyl-5-(3-methyl-1,2,4-thiadiazol-5-yl)phenyl)glycyl)indolin-4-yl) isothiazolidin-3-one 1,1-dioxide], the IC50 lay in the range of 0.1 to 19 nM.

In the case of `CCc1noc(-c2cc(NCC(=O)c3c[nH]c4cc(OC)c(Br)cc34)c(OC)cc2Br)n1` [Example 108, 2-(4-bromo-5-(3-ethyl-1,2,4-oxadiazol-5-yl)-2-methoxyphenylamino)-1-(5-bromo-6-methoxy-1H-indol-3-yl) ethanone], the IC50 was 70 to 99 nM.

Regarding `CCc1noc(-c2ccc(OC)c(NCC(=O)N3CCc4nc(OC)ccc43)c2)n1` [Example 11, 2-((5-(3-ethyl-1,2,4-oxadiazol-5-yl)-2-methoxyphenyl)amino)-1-(5-methoxy-2,3-dihydro-1H-pyrrolo[3,2-b]pyridin-1-yl)ethan-1-one], the IC50 lay in the range of 20 to 39 nM.

As for `Cc1nsc(-c2ccc(C)c(NCC(=O)N3CCc4c3cccc4-n3ccnc3)c2)n1` [Example 48, 1-(4-(1H-imidazol-1-yl)indolin-1-yl)-2-((2-methyl-5-(3-methyl-1,2,4-thiadiazol-5-yl)phenyl)amino)ethan-1-one], the IC50 is 20 to 39 nM.

As to `Cc1nsc(-c2ccc(C)c(NCC(=O)c3c[nH]c4ccccc34)c2)n1` [Example 102, 1-(1H-indol-3-yl)-2-((2-methyl-5-(3-methyl-1,2,4-thiadiazol-5-yl)phenyl)amino)ethan-1-one], the IC50 was 20 to 39 nM.

For `Cc1nsc(-c2ccc(C)c(NCC(=O)N3CCc4nc(Cl)ccc43)c2)n1` [Example 10, 1-(5-chloro-2,3-dihydro-1H-pyrrolo[3,2-b]pyridin-1-yl)-2-((2-methyl-5-(3-methyl-1,2,4-thiadiazol-5-yl)phenyl)amino)ethan-1-one], the IC50 was in the range of 70 to 99 nM.

`Cc1ccc(-c2ccc(Cl)cn2)cc1NCC(=O)N1CCc2c(OCC(C)(C)O)cccc21` [Example 115, 2-((5-(5-chloropyridin-2-yl)-2-methylphenyl)amino)-1-(4-(2-hydroxy-2-methyl-propoxy)-indolin-1-yl)ethan-1-one]: the IC50 was in the range of 40 to 69 nM.

The values above are taken from patent US20260209215A1, “GLYCINE DERIVATIVES WITH P2X4 RECEPTOR-BLOCKING ACTIVITY AS DIAGNOSTICS AND FOR THE TREATMENT OF PAIN, INFLAMMATION, CANCER, AND OTHER P2X4 RECEPTOR-RELATED DISEASES” (RHEINISCHE-FRIEDRICH-WILHELMS-UNIVERSITÄT BONN, priority 2022, published 2026).
